The subject of experiment [1] is dopaminergic neurons (TH+) of rat mesencephalon cultures. The experiment can be described thus: tritiated dopamine reuptake per TH+ dopaminergic neuron in mesencephalon cultures. The settings on record: D14; memantine 10 μM; 75% Xe or 75% N2; p<0.05, n=9. It counts as cell-based. As to the method: Cultures are prepared from mesencephalon of rat embryos, taking from female Wistar rats, on day 15.5 of gestation.
The process for obtaining the mesencephalon cultures comprises the obtaining of a homogeneous cell suspension by mechanical dissociation, that is to say non-enzymatic dissociation, of the embryonic tissue, using Leibovitz's L15 medium (Sigma Aldrich).
Aliquots of this suspension are added to 48-well Nunc plates, which have been precoated with a thin layer of polyethyleneimine (1 mg/ml, borate buffer, pH 8.3) so as to allow the adhesion of neuronal cells (Toulorge et al., Faseb J, 2011).
The seeding density is between approximately 80 000 and 100 000 cells/cm^2.
The mesencephalon cultures are maintained in Minimum Essential culture Medium (MEM), containing 1 g/l of glucose, 2 mM of L-glutamine, 1 mM of sodium pyruvate, non-essential amino acids and a penicillin/streptomycin cocktail. For the first week of culture, this medium is supplemented with 10% of fetal calf serum and 10% of horse serum. Starting from the second week, the serum concentrations are reduced to 2% (Gao et al., J Neurosci, 2002).
Up until the moment when the effects of the gases of interest are evaluated, the cultures are placed in a conventional enclosure thermostated at 37° C., in which the CO2 is maintained at 5% by volume and wherein the atmosphere is saturated with water. […]

The test system is the same in experiment [2]. The experiment can be described thus: neurite length per TH+ dopaminergic neuron in mesencephalon cultures. It counts as cell-based. As to conditions: D14; memantine 10 μM; 75% Xe or 75% N2; p<0.05, n=9. The method, then:
Cultures are prepared from mesencephalon of rat embryos, taking from female Wistar rats, on day 15.5 of gestation. The process for obtaining the mesencephalon cultures comprises the obtaining of a homogeneous cell suspension by mechanical dissociation, that is to say non-enzymatic dissociation, of the embryonic tissue, using Leibovitz's L15 medium (Sigma Aldrich). Aliquots of this suspension are added to 48-well Nunc plates, which have been precoated with a thin layer of polyethyleneimine (1 mg/ml, borate buffer, pH 8.3) so as to allow the adhesion of neuronal cells (Toulorge et al., Faseb J, 2011). The seeding density is between approximately 80 000 and 100 000 cells/cm^2. The mesencephalon cultures are maintained in Minimum Essential culture Medium (MEM), containing 1 g/l of glucose, 2 mM of L-glutamine, 1 mM of sodium pyruvate, non-essential amino acids and a penicillin/streptomycin cocktail. For the first week of culture, this medium is supplemented with 10% of fetal calf serum and 10% of horse serum. […] Up until the moment when the effects of the gases of interest are evaluated, the cultures are placed in a conventional enclosure thermostated at 37° C., in which the CO2 is maintained at 5% by volume and wherein the atmosphere is saturated with water. […] This parameter is evaluated with the same HCS Studio software.

`[Xe]` [Xenon, xenon]: the “dopamine reuptake per TH^+ neuron, effect compared with control cultures under 75% nitrogen (FIG. 1)” value in experiment [1] is reported as “significantly greater”. In experiment [2], the “neurite length per TH^+ neuron, effect compared with control cultures under 75% nitrogen (FIG. 2)” value is recorded as “significantly greater”.

Take `CC12CC3CC(C)(C1)CC(N)(C3)C2` [Memantine, memantine]: the “dopamine reuptake per TH^+ neuron, effect compared with control cultures under 75% nitrogen (FIG. 1)” value in experiment [1] is recorded as “significantly greater”. The “neurite length per TH^+ neuron, effect compared with control cultures under 75% nitrogen (FIG. 2)” value in experiment [2] is reported as “significantly greater”.

The values above are taken from patent publication US20170246204A1, “MEDICAMENT FOR TREATING A DISEASE RELATING TO A DYSFUNCTION OF THE DOPAMINERGIC SYNAPTIC TRANSMISSION” (L'Air Liquide, Société Anonyme pour l'Etude et …, priority 2014, published 2017).
